The record followed here is US10633389B2, “CARM1 inhibitors and uses thereof” (Epizyme, Inc., priority 2013, dated 2020).

Bounds are passed on as bounds.

In the experiment the test system is asymmetric di-methyl PABP1 in RKO cells. Kind of experiment: RKO methylation assay, In Cell Western (ICW) for asymmetric di-methyl PABP1. Conditions: Homo sapiens, RKO, Cellular potencies, ICW PABP1me2a. The class given is cell-based. The procedure, abridged:
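In-cell Western on fixed RKO cells after 48 h compound exposure: anti-asymmetric di-methyl PABP1 signal at 800 nm over DRAQ5 DNA signal at 700 nm. Percent inhibition set between DMSO wells and wells with 20 μM reference compound; IC50 curves fitted in triplicate.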
Take `CNCC(O)COc1cccc(-c2nc(NC3CCN(C4COC4)CC3)c(C)c(-c3c(C)noc3C)n2)c1` (centres unmarked) [Example 263-1a]: the IC50 is < 5 µM.

For `CCO[C@@H]1CCC[C@H]1N(CC)c1nc(-c2cc(OC[C@H](O)CNC)ccc2Cl)nc(-c2c(C)noc2C)c1C` [Example 241-3], the IC50 was < 5 µM.

With `CCO[C@H]1CCC[C@H]1Nc1nc(-c2cc(OC[C@H](O)CNC)ccc2Cl)nc(-c2c(C)noc2C)c1C` [Example 242-3], the IC50 is < 5 µM.

`CNC[C@@H](O)COc1ccc(Cl)c(-c2nc(N[C@H]3C[C@@H](OC)C3)c(C)c(-c3c(C)noc3C)n2)c1` [Example 144-3]: the IC50 was < 5 µM.

Take `CNC[C@@H](O)COc1ccc(Cl)c(-c2nc(-c3c(C)noc3C)c(C)c(N3CC(F)(F)C3)n2)c1` [Example 184-3]: the IC50 was < 5 µM.

`CNCC(O)COc1cccc(-c2nc(-c3c(C)noc3C)cc(N3C[C@@H]4C[C@H]3CN4C(=O)OC)n2)c1` (some centres unmarked) [Example 94-1a]: the IC50 was < 5 µM.

For the molecule `CNC[C@@H](O)COc1ccc(Cl)c(-c2nc(-c3c(C)noc3C)c(C)c(N3CCc4ncccc43)n2)c1` [Example 199-3], the IC50 is < 5 µM.

Turning to `CNC[C@@H](O)COc1ccc(Cl)c(-c2nc(-c3c(C)noc3C)c(C)c(N(C)[C@H]3CC[C@@H](OC)C3)n2)c1` [Example 213-3], the concentration for half-maximal inhibition (IC50) is < 5 µM.

Regarding `CNCC(O)COc1cccc(-c2nc(-c3c(C)noc3C)cc(N(C)CCC#N)n2)c1` (centres unmarked) [Example 5-1a], the half-inhibitory concentration (IC50) lay in the range of 10 to 20 µM.

Take `CNC[C@@H](O)COc1ccc(Cl)c(-c2nc(N[C@H]3CCN(C4CC4)[C@@H](C)C3)c(C)c(-c3c(C)noc3C)n2)c1` [Example 170-3]: the IC50 is < 5 µM.

For `CNC[C@@H](O)COc1ccc(C(F)(F)F)c(-c2nc(NC3CCOCC3)c(C)c(-c3c(C)noc3C)n2)c1` [Example 200-3], the IC50 is < 5 µM.

As to `CNC[C@@H](O)COc1ccc(Cl)c(-c2nc(-c3c(C)noc3C)c(C)c(N3Cc4c(C)nn(C)c4C3)n2)c1` [Example 236-3], the IC50 was < 5 µM.

Turning to `CNC[C@@H](O)COc1ccc(Cl)c(-c2nc(NC[C@H]3CCCN3C(=O)OC(C)C)c(C)c(-c3c(C)noc3C)n2)c1` [Example 160-3], the IC50 was < 5 µM.

On to `CCOC(=O)N1CCC[C@H]1CCNc1nc(-c2cc(OC[C@H](O)CNC)ccc2Cl)nc(-c2c(C)noc2C)c1C` [Example 137-3], for which the IC50 was < 5 µM.

As to `CNCC(O)COc1cccc(-c2nc(-c3c(C)noc3C)c(C)c(N(C)C)n2)c1` (centres unmarked) [Example 308-1a], the IC50 is < 5 µM.

On to `CNCC(O)COc1cccc(-c2nc(N[C@@H]3CCOC3)c(C)c(N3Cc4ccncc4C3)n2)c1` (some centres unmarked) [Example 427-1a], for which the IC50 was < 5 µM.

Take `CNC[C@H](O)COc1ccc(Cl)c(-c2nc(NCCC(C)(C)OC)c(C)c(-c3c(C)noc3C)n2)c1` [Example 82-3]: the IC50 was < 5 µM.

Turning to `CNCC(O)COc1cccc(-c2nc(NC3CCN(C(=O)OC)CC3)cc(-c3c(C)noc3C)n2)c1` (centres unmarked) [Example 102-1a], the IC50 is < 5 µM.

`CNCC(O)COc1cccc(-c2nc(NC3CCOCC3)cc(-c3cnn(CC(C)C)c3)n2)c1` (centres unmarked) [Example 51-1] registered an IC50 of 10 to 20 µM.

With `CNC[C@H](O)COc1ccc(Cl)c(-c2nc(NC[C@H]3COCCN3C(=O)OC)c(C)c(-c3c(C)noc3C)n2)c1` [Example 58-3], the IC50 was < 5 µM.

As for `CNC[C@@H](O)COc1ccc(Cl)c(-c2nc(NC3CC(COC)C3)c(C)c(-c3c(C)noc3C)n2)c1` (some centres unmarked) [Example 219-3], the IC50 is < 5 µM.

`CCOC(=O)N1CC[C@@H](Nc2nc(-c3cccc(OCC(O)CNC)c3)nc(-c3c(C)noc3C)c2C)[C@@H](F)C1` (some centres unmarked) [Example 226-1a]: the IC50 is < 5 µM.

With `CNCC(O)COc1cccc(-c2nc(NC3CCCN(C(=O)C4CC4)C3)c(C)c(-c3c(C)noc3C)n2)c1` (centres unmarked) [Example 247-1a], the concentration for half-maximal inhibition (IC50) was < 5 µM.

Regarding `CNC[C@@H](O)COc1ccc(Cl)c(-c2nc(N[C@H]3CCN(C(=O)OC)[C@H](C)C3)c(C)c(-c3c(C)noc3C)n2)c1` [Example 102-3], the half-maximal inhibitory concentration (IC50) was < 5 µM.

Regarding `CNCC(O)COc1cccc(-c2nc(N[C@@H]3CCNC3)c(C)c(-c3c(C)noc3C)n2)c1` (some centres unmarked) [Example 307-1a], the IC50 lay within 10 to 20 µM.

Turning to `CNCC(O)COc1cccc(-c2nc(N3CCNCC3)c(C)c(N(C)C3CCOCC3)n2)c1` (centres unmarked) [Example 560-1a], the IC50 is 10 to 20 µM.

Molecule `CNCC(O)COc1cccc(-c2nc(NC3CCOC3)c(C)c(N3CC4CC(C3)N4)n2)c1` (centres unmarked) [Example 452-1a] had an IC50 of 10 to 20 µM.

In the case of `CCOC(=O)N1CCOC[C@@H]1CNc1nc(-c2cc(OC[C@H](O)CNC)ccc2F)nc(-c2c(C)noc2C)c1C` [Example 62-3], the IC50 was < 5 µM.

In the case of `CNC[C@@H](O)COc1ccc(C(F)(F)F)c(-c2nc(NC3CCN(C(=O)OC)CC3)c(C)c(-c3c(C)noc3C)n2)c1` [Example 204-3], the IC50 was < 5 µM.

Molecule `CCOC(=O)c1sc(-c2cc(N(C)C3CCOCC3)nc(-c3cccc(OCC(O)CNC)c3)n2)nc1C` (centres unmarked) [Example 565-1a] yielded an IC50 of 10 to 20 µM.

Turning to `CNC[C@@H](O)COc1ccc(Cl)c(-c2nc(-c3c(C)noc3C)c(C)c(N3CCC4(CC4)C3)n2)c1` [Example 234-3], the IC50 was < 5 µM.

With `CNC[C@@H](O)COc1ccc(F)c(-c2nc(-c3c(C)noc3C)c(C)c(N3Cc4cc(Cl)cnc4C3)n2)c1` [Example 185-3], the IC50 is < 5 µM.

In the case of `CCO[C@@H]1CCC[C@@H]1N(CC)c1nc(-c2cc(OC[C@H](O)CNC)ccc2Cl)nc(-c2c(C)noc2C)c1C` [Example 254-3], the half-maximal inhibitory concentration (IC50) was 5 to 10 µM.

Take `CNC[C@H](O)COc1ccc(Cl)c(-c2nc(-c3c(C)noc3C)c(C)c(N3Cc4ccncc4C3)n2)c1` [Example 90-3]: the IC50 was < 5 µM.

For the molecule `CNCC(O)COc1cccc(-c2nc(NC3C[C@H]4CC[C@@H](C3)N4C(=O)OC)c(C)c(-c3c(C)noc3C)n2)c1` (some centres unmarked) [Example 242-1a], the IC50 was < 5 µM.

In the case of `CNCC(O)COc1cccc(-c2nc(-c3c(C)noc3C)cc(N3CCN(C(=O)N(C)C)[C@@H](C)C3)n2)c1` (some centres unmarked) [Example 91-1a], the IC50 was < 5 µM.

With `CNC[C@@H](O)COc1ccc(Cl)c(-c2nc(-c3c(C)noc3C)c(C)c(N3CC4(CCCO4)C3)n2)c1` [Example 121-3], the IC50 was < 5 µM.

As for `CNCC(O)COc1cccc(-c2nc(NC3CN(C(=O)C4CC4)C3)c(C)c(-c3c(C)noc3C)n2)c1` (centres unmarked) [Example 264-1a], the half-inhibitory concentration (IC50) is 5 to 10 µM.

For the molecule `CNCC(O)COc1cccc(-c2nc(-c3c(C)noc3C)cc(N(C)c3cnc(C)nc3)n2)c1` (centres unmarked) [Example 61-1a], the IC50 was in the range of 10 to 20 µM.

With `CNCC(O)COc1cccc(-c2nc(N[C@@H]3CCOC3)c(C)c(-c3cnc4[nH]ccc4c3)n2)c1` (some centres unmarked) [Example 355-1a], the IC50 was in the range of 10 to 20 µM.

In the case of `CNCC(O)COc1cccc(-c2nc(N[C@@H]3CCOC[C@@H]3OC)c(C)c(-c3c(C)noc3C)n2)c1` (some centres unmarked) [Example 220-1a], the 50% inhibitory concentration (IC50) was < 5 µM.

Regarding `CNCC(O)COc1ccc(Cl)c(-c2nc(NC3CC4(C3)CN(C(=O)OC)C4)c(C)c(-c3c(C)noc3C)n2)c1` (centres unmarked) [Example 45-3], the IC50 is < 5 µM.

For `CNCC(O)COc1cccc(-c2nc(N[C@@H]3CCN(C4CC4)C[C@H]3F)c(C)c(-c3c(C)noc3C)n2)c1` (some centres unmarked) [Example 261-1a], the 50% inhibitory concentration (IC50) is < 5 µM.

Turning to `CNC[C@@H](O)COc1ccc(Cl)c(-c2nc(N[C@H]3CN(C4CC4)C[C@@H]3F)c(C)c(-c3c(C)noc3C)n2)c1` [Example 203-3], the IC50 was < 5 µM.
